Source: PubChem BioAssay (NCI)
Where “and” joins values, the source holds several entries; their conditions need not be identical. Equal values may be shown once.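 All cell lines were grown in 96-well plates and treated with compound for 48 hours. At the GI50, growth is halved. TGI denotes the concentration required for complete inhibition of growth.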

Experiments:
Test in all cases: growth of human tumour cells (NCI), 48 h
HCT-15 colon = system: HCT-15 colon
IGROV1 ovarian = system: IGROV1 ovarian
K-562 leukemia = system: K-562 leukemia
KM12 colon = system: KM12 colon
MCF7 breast = system: MCF7 breast
MDA-N = system: MDA-N
MOLT-4 leukemia = system: MOLT-4 leukemia
NCI-H460 lung = system: NCI-H460 lung
NCI/ADR-RES ovarian = system: NCI/ADR-RES ovarian
OVCAR-8 ovarian = system: OVCAR-8 ovarian
PC-3 prostate = system: PC-3 prostate
SK-MEL-2 melanoma = system: SK-MEL-2 melanoma
SK-MEL-28 melanoma = system: SK-MEL-28 melanoma
SK-OV-3 ovarian = system: SK-OV-3 ovarian
SR leukemia = system: SR leukemia
UO-31 renal = system: UO-31 renal
MDA-MB-435 = system: MDA-MB-435
T-47D breast = system: T-47D breast

## CCOC(=O)NC(C(=O)OCC)C(F)(F)F (stereo unspecified)
HCT-15 colon
  TGI: > 100 µM
IGROV1 ovarian
  TGI: > 100 µM
K-562 leukemia
  TGI: > 100 µM
KM12 colon
  TGI: > 100 µM
MCF7 breast
  TGI: > 100 µM
MDA-N
  TGI: > 100 µM
MOLT-4 leukemia
  TGI: > 100 µM
NCI-H460 lung
  TGI: > 100 µM
NCI/ADR-RES ovarian
  TGI: > 100 µM
OVCAR-8 ovarian
  TGI: > 100 µM
PC-3 prostate
  TGI: > 100 µM
SK-MEL-2 melanoma
  TGI: > 100 µM
SK-MEL-28 melanoma
  TGI: > 100 µM
SK-OV-3 ovarian
  TGI: > 100 µM
SR leukemia
  TGI: > 100 µM
UO-31 renal
  TGI: > 100 µM

## N#Cc1c(-c2ccc(Cl)cc2)c(C#N)c(=O)n(NS(=O)(=O)c2ccccc2)c1S
HCT-15 colon
  TGI: 49.6 µM
IGROV1 ovarian
  TGI: 65.5 µM
K-562 leukemia
  TGI: > 100 µM
MCF7 breast
  TGI: > 100 µM
MDA-MB-435
  TGI: 65 µM
MDA-N
  TGI: 67.3 µM
MOLT-4 leukemia
  TGI: > 100 µM
NCI-H460 lung
  TGI: 46 µM
NCI/ADR-RES ovarian
  TGI: 74.2 µM
OVCAR-8 ovarian
  TGI: 65 µM
PC-3 prostate
  TGI: > 100 µM
SK-MEL-2 melanoma
  TGI: > 100 µM
SK-OV-3 ovarian
  TGI: > 100 µM
SR leukemia
  TGI: 56.5 µM
UO-31 renal
  TGI: 45.3 µM

## OCC1OC(NCCNCCNC2OC(CO)C(O)C(O)C2O)C(O)C(O)C1O (stereo unspecified)
HCT-15 colon
  TGI: > 100 µM
IGROV1 ovarian
  TGI: > 100 µM
K-562 leukemia
  TGI: > 100 µM
KM12 colon
  GI50: 10.4 µM and 43.3 µM and > 100 µM
  TGI: 22.5 µM and > 100 µM
MCF7 breast
  TGI: > 100 µM
MDA-N
  TGI: > 100 µM
MOLT-4 leukemia
  TGI: > 100 µM
NCI-H460 lung
  TGI: > 100 µM
NCI/ADR-RES ovarian
  TGI: > 100 µM
OVCAR-8 ovarian
  TGI: > 100 µM
PC-3 prostate
  TGI: > 100 µM
SK-MEL-2 melanoma
  TGI: > 100 µM
SK-MEL-28 melanoma
  TGI: > 100 µM
SK-OV-3 ovarian
  TGI: > 100 µM
SR leukemia
  TGI: > 100 µM
T-47D breast
  TGI: > 100 µM
UO-31 renal
  TGI: > 100 µM

## N#CCC(=O)c1cc(OCc2cc(OCc3ccc(Br)cc3)cc(OCc3ccc(Br)cc3)c2)cc(OCc2cc(OCc3ccc(Br)cc3)cc(OCc3ccc(Br)cc3)c2)c1
HCT-15 colon
  TGI: > 100 µM
K-562 leukemia
  TGI: > 100 µM
KM12 colon
  TGI: > 100 µM
MCF7 breast
  TGI: > 100 µM
MDA-MB-435
  TGI: > 100 µM
MDA-N
  TGI: > 100 µM
NCI-H460 lung
  TGI: > 100 µM
NCI/ADR-RES ovarian
  TGI: > 100 µM
PC-3 prostate
  TGI: > 100 µM
SK-MEL-2 melanoma
  TGI: > 100 µM
SK-MEL-28 melanoma
  TGI: > 100 µM
SK-OV-3 ovarian
  TGI: > 100 µM
T-47D breast
  TGI: > 100 µM
UO-31 renal
  TGI: > 100 µM

## COC(=O)[C@@H](O)[C@]1(C(=O)OC)C2O[C@@H](OC)[C@@H]1CCCCCC[C@H]2O
HCT-15 colon
  TGI: > 100 µM
IGROV1 ovarian
  TGI: > 100 µM
K-562 leukemia
  TGI: > 100 µM
KM12 colon
  TGI: > 100 µM
MDA-MB-435
  TGI: > 100 µM
MDA-N
  TGI: > 100 µM
MOLT-4 leukemia
  TGI: > 100 µM
NCI-H460 lung
  TGI: > 100 µM
NCI/ADR-RES ovarian
  TGI: > 100 µM
OVCAR-8 ovarian
  TGI: > 100 µM
PC-3 prostate
  TGI: > 100 µM
SK-MEL-2 melanoma
  TGI: > 100 µM
SK-MEL-28 melanoma
  TGI: > 100 µM
SK-OV-3 ovarian
  TGI: > 100 µM
SR leukemia
  TGI: > 100 µM
UO-31 renal
  TGI: > 100 µM

## C/C(=N\NC(=S)NC1CCCC1)c1ccccn1
HCT-15 colon
  TGI: > 100 µM
IGROV1 ovarian
  TGI: > 44.1 µM
KM12 colon
  TGI: > 83.2 µM
MCF7 breast
  TGI: 28.7 µM
MDA-MB-435
  TGI: > 75.6 µM
MDA-N
  TGI: 35.4 µM
NCI-H460 lung
  TGI: > 19.9 µM
OVCAR-8 ovarian
  TGI: > 22.4 µM
PC-3 prostate
  TGI: > 100 µM
SK-MEL-2 melanoma
  TGI: > 100 µM
SK-MEL-28 melanoma
  TGI: > 100 µM
SK-OV-3 ovarian
  TGI: > 100 µM
T-47D breast
  TGI: > 23.9 µM
UO-31 renal
  TGI: 22.3 µM

## COc1ccc(Cc2c(N)[nH]c(=O)n(C)c2=O)cc1
HCT-15 colon
  TGI: > 100 µM
IGROV1 ovarian
  TGI: > 100 µM
K-562 leukemia
  TGI: > 100 µM
KM12 colon
  TGI: > 100 µM
MCF7 breast
  TGI: 22.2 µM
MDA-MB-435
  TGI: > 100 µM
MDA-N
  TGI: > 100 µM
NCI-H460 lung
  TGI: > 100 µM
NCI/ADR-RES ovarian
  TGI: > 100 µM
OVCAR-8 ovarian
  TGI: > 100 µM
PC-3 prostate
  TGI: > 100 µM
SK-MEL-2 melanoma
  TGI: > 100 µM
SK-MEL-28 melanoma
  TGI: > 100 µM
SK-OV-3 ovarian
  TGI: > 100 µM
T-47D breast
  TGI: > 100 µM
UO-31 renal
  TGI: > 100 µM

## CC1=C(O)C(=O)C[C@]2(C)[C@H]3CC=C4[C@@H]5CC(C)(C)CC[C@@H]5C(=O)[C@H](O)[C@@]4(C)[C@]3(C)CC[C@@H]12
HCT-15 colon
  TGI: > 50 µM
IGROV1 ovarian
  TGI: > 50 µM
KM12 colon
  TGI: > 50 µM
MCF7 breast
  TGI: > 50 µM
MDA-MB-435
  TGI: > 50 µM
MDA-N
  TGI: > 50 µM
MOLT-4 leukemia
  TGI: > 50 µM
NCI-H460 lung
  TGI: > 50 µM
NCI/ADR-RES ovarian
  TGI: > 50 µM
OVCAR-8 ovarian
  TGI: > 50 µM
PC-3 prostate
  TGI: > 50 µM
SK-MEL-2 melanoma
  TGI: > 50 µM
SK-MEL-28 melanoma
  TGI: > 50 µM
SK-OV-3 ovarian
  TGI: > 50 µM
T-47D breast
  TGI: > 50 µM
UO-31 renal
  TGI: > 50 µM

## CSc1nc(-c2ccc(C)cc2)c(C#N)c(=O)[nH]1
HCT-15 colon
  TGI: > 100 µM
IGROV1 ovarian
  TGI: > 100 µM
K-562 leukemia
  TGI: > 100 µM
KM12 colon
  TGI: > 100 µM
MCF7 breast
  TGI: > 100 µM
MDA-MB-435
  TGI: > 100 µM
MOLT-4 leukemia
  TGI: > 100 µM
NCI-H460 lung
  TGI: > 100 µM
NCI/ADR-RES ovarian
  TGI: > 100 µM
OVCAR-8 ovarian
  TGI: > 100 µM
PC-3 prostate
  TGI: > 100 µM
SK-MEL-2 melanoma
  TGI: > 100 µM
SK-MEL-28 melanoma
  TGI: > 100 µM
SK-OV-3 ovarian
  TGI: > 100 µM
T-47D breast
  TGI: > 100 µM
UO-31 renal
  TGI: > 100 µM

## COC(=O)C12OC(C)(C(CC(=O)OC(C)(C)C)C1=O)C1C(=O)N(c3ccccc3)C(=O)C12 (stereo unspecified)
HCT-15 colon
  TGI: > 100 µM
IGROV1 ovarian
  TGI: > 100 µM
K-562 leukemia
  TGI: > 100 µM
KM12 colon
  TGI: > 100 µM
MDA-MB-435
  TGI: > 100 µM
MDA-N
  TGI: > 100 µM
MOLT-4 leukemia
  TGI: > 100 µM
NCI-H460 lung
  TGI: > 100 µM
NCI/ADR-RES ovarian
  TGI: > 100 µM
OVCAR-8 ovarian
  TGI: > 100 µM
PC-3 prostate
  TGI: > 100 µM
SK-MEL-2 melanoma
  TGI: > 100 µM
SK-MEL-28 melanoma
  TGI: > 100 µM
SK-OV-3 ovarian
  TGI: > 100 µM
SR leukemia
  TGI: > 100 µM
T-47D breast
  TGI: > 100 µM
UO-31 renal
  TGI: > 100 µM

## O=C1NC(=S)NC(=O)C1C(c1ccc([N+](=O)[O-])cc1)C1C(=O)NC(=S)NC1=O
HCT-15 colon
  TGI: > 100 µM
IGROV1 ovarian
  TGI: > 100 µM
K-562 leukemia
  TGI: > 100 µM
KM12 colon
  TGI: > 100 µM
MCF7 breast
  TGI: > 100 µM
MDA-MB-435
  TGI: > 100 µM
MDA-N
  TGI: > 100 µM
MOLT-4 leukemia
  TGI: > 100 µM
NCI-H460 lung
  TGI: > 100 µM
NCI/ADR-RES ovarian
  TGI: > 100 µM
OVCAR-8 ovarian
  TGI: > 100 µM
PC-3 prostate
  TGI: > 100 µM
SK-MEL-2 melanoma
  TGI: > 100 µM
SK-MEL-28 melanoma
  TGI: > 100 µM
T-47D breast
  TGI: > 100 µM
UO-31 renal
  TGI: > 100 µM

## O=c1[nH]c(=O)n(COCCO)c2ccc(Br)cc12
HCT-15 colon
  TGI: > 100 µM
IGROV1 ovarian
  TGI: > 100 µM
K-562 leukemia
  TGI: > 100 µM
KM12 colon
  TGI: > 100 µM
MCF7 breast
  TGI: > 100 µM
MDA-MB-435
  TGI: > 100 µM
MDA-N
  TGI: > 100 µM
MOLT-4 leukemia
  TGI: > 100 µM
NCI-H460 lung
  TGI: > 100 µM
NCI/ADR-RES ovarian
  TGI: > 100 µM
OVCAR-8 ovarian
  TGI: > 100 µM
SK-MEL-2 melanoma
  TGI: > 100 µM
SK-MEL-28 melanoma
  TGI: > 100 µM
SK-OV-3 ovarian
  TGI: > 100 µM
SR leukemia
  TGI: > 100 µM
UO-31 renal
  TGI: > 100 µM

## c1cc(CSP234N5CCN2CCN3CCN4CC5)ccc1CSP123N4CCN1CCN2CCN3CC4
HCT-15 colon
  TGI: > 100 µM
IGROV1 ovarian
  TGI: > 100 µM
K-562 leukemia
  TGI: > 100 µM
KM12 colon
  TGI: > 100 µM
MCF7 breast
  TGI: > 100 µM
MDA-MB-435
  TGI: > 100 µM
MDA-N
  TGI: > 100 µM
MOLT-4 leukemia
  TGI: > 100 µM
NCI-H460 lung
  TGI: > 100 µM
NCI/ADR-RES ovarian
  TGI: > 100 µM
OVCAR-8 ovarian
  TGI: > 100 µM
PC-3 prostate
  TGI: > 100 µM
SK-MEL-2 melanoma
  TGI: > 100 µM
SK-MEL-28 melanoma
  TGI: > 100 µM
T-47D breast
  TGI: > 100 µM
UO-31 renal
  TGI: > 100 µM

## Cc1nc2ccc(F)cc2c2c1CCO2
HCT-15 colon
  TGI: > 100 µM
IGROV1 ovarian
  TGI: > 100 µM
K-562 leukemia
  TGI: > 100 µM
KM12 colon
  TGI: > 100 µM
MDA-MB-435
  TGI: > 100 µM
MDA-N
  TGI: > 100 µM
MOLT-4 leukemia
  TGI: > 100 µM
NCI-H460 lung
  TGI: > 100 µM
NCI/ADR-RES ovarian
  TGI: > 100 µM
OVCAR-8 ovarian
  TGI: > 100 µM
SK-MEL-2 melanoma
  TGI: > 100 µM
SK-MEL-28 melanoma
  TGI: > 100 µM
SR leukemia
  TGI: > 100 µM
T-47D breast
  TGI: > 100 µM
UO-31 renal
  TGI: > 100 µM
